Consider 25 compounds from ChEMBL document CHEMBL5291721, “A preclinical secondary pharmacology resource illuminates target-adverse drug reaction associations of marketed drugs” (Nat Commun, 2023).

The target of assay [1] is Gamma-aminobutyric acid receptor subunit alpha-1/alpha-2/beta-2/gamma-2 (Homo sapiens, UniProt P14867+P18507+P47869+P47870). The class given is protein-complex assay.
The target in assay [2] is Muscarinic acetylcholine receptor M3 (Homo sapiens, UniProt P20309).
In assay [3] the target is 5-hydroxytryptamine receptor 2A (Homo sapiens, UniProt P28223). The class given is functional, cell-based.
Chain of 5-hydroxytryptamine receptor 2A (P28223 whole entry): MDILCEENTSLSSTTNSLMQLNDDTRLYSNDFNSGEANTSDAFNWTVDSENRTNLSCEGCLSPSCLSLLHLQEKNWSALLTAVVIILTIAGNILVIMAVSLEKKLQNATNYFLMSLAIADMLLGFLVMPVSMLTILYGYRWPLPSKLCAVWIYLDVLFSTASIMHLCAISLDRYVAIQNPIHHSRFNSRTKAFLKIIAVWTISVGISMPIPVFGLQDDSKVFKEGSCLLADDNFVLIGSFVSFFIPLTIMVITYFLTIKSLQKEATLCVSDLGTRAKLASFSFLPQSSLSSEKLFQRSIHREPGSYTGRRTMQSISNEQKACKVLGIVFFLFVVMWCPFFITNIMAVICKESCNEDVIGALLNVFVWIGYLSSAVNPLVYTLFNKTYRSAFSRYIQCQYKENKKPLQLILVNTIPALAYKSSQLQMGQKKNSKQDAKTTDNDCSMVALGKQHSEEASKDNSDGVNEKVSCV
Assay [4] addresses T1, Glucocorticoid receptor (Homo sapiens, UniProt P04150).
T1 sequence (P04150 whole entry): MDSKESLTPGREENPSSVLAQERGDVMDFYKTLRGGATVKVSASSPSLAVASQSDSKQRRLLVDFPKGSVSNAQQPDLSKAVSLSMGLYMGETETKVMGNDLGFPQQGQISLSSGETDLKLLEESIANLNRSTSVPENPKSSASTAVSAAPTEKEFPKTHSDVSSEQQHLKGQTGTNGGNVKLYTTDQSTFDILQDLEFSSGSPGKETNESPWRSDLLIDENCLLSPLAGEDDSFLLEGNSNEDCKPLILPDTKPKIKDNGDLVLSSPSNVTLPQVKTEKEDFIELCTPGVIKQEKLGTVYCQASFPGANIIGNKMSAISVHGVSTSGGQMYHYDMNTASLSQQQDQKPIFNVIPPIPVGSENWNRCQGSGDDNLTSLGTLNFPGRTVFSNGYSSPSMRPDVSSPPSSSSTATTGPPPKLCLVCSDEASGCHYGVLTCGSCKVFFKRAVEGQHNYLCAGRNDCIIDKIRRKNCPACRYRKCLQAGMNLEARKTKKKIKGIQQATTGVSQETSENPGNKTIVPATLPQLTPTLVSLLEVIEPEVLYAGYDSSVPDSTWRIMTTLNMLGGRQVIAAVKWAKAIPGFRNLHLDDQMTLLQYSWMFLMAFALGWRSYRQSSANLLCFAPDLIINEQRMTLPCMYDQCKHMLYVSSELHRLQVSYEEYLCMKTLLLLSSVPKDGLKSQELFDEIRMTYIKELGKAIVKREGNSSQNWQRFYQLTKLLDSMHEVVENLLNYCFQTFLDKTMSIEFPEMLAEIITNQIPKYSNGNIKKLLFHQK

Each structure is given as a SMILES string.
Also: assay procedure not described here.

Chain of Muscarinic acetylcholine receptor M3 (P20309 whole entry): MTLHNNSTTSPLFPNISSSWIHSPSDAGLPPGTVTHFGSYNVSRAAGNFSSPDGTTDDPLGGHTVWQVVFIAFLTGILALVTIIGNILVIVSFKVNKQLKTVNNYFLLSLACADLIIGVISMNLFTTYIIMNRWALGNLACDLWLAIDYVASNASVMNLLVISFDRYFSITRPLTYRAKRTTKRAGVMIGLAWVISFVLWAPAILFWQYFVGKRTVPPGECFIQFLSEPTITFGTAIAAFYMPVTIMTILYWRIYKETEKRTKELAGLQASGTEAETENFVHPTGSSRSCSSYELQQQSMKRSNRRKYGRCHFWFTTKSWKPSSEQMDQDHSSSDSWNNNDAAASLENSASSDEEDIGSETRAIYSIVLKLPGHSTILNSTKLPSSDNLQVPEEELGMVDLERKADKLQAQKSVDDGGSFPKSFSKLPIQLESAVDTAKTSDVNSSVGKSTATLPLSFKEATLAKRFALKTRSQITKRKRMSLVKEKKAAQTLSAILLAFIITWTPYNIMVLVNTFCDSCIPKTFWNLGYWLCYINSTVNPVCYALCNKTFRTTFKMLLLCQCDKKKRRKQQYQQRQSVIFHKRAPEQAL
Chain of Gamma-aminobutyric acid receptor subunit alpha-1/alpha-2/beta-2/gamma-2 (P14867 whole entry): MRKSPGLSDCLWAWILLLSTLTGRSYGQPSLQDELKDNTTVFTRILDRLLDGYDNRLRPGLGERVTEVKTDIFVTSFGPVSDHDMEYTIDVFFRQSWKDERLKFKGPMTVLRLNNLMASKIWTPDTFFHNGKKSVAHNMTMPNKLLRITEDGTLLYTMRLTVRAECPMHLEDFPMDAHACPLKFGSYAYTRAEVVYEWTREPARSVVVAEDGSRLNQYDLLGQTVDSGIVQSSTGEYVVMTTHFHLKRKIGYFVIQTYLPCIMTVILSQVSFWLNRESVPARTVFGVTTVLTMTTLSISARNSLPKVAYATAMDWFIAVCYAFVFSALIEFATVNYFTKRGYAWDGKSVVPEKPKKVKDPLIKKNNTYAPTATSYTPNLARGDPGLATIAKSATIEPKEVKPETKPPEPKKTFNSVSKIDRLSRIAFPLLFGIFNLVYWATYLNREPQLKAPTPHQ
Chain of Gamma-aminobutyric acid receptor subunit alpha-1/alpha-2/beta-2/gamma-2 (P47870 whole entry): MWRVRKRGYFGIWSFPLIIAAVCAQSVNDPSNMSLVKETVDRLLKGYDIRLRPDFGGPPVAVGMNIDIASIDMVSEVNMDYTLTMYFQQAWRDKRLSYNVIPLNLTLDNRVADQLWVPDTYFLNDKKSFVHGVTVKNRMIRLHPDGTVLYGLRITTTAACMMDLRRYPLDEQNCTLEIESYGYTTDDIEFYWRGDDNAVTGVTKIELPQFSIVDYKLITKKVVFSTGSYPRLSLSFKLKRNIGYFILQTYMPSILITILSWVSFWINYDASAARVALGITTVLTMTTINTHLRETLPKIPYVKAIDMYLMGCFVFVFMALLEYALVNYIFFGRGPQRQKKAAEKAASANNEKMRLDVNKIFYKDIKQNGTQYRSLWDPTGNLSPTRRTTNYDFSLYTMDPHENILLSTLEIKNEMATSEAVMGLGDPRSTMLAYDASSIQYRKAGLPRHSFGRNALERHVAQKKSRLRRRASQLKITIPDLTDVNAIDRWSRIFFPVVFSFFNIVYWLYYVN
Chain of Gamma-aminobutyric acid receptor subunit alpha-1/alpha-2/beta-2/gamma-2 (P18507 whole entry): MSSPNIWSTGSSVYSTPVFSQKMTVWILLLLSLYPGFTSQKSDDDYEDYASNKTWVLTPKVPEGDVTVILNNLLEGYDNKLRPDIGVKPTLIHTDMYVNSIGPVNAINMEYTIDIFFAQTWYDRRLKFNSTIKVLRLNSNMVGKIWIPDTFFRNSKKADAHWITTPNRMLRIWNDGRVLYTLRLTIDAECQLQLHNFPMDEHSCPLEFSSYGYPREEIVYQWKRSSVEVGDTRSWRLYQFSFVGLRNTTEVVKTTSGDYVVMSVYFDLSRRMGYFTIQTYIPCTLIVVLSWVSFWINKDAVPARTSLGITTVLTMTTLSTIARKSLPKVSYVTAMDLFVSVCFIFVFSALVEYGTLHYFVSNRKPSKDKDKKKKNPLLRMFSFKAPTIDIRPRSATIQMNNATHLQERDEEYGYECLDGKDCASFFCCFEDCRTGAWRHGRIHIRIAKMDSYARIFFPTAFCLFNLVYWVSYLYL
Chain of Gamma-aminobutyric acid receptor subunit alpha-1/alpha-2/beta-2/gamma-2 (P47869 whole entry): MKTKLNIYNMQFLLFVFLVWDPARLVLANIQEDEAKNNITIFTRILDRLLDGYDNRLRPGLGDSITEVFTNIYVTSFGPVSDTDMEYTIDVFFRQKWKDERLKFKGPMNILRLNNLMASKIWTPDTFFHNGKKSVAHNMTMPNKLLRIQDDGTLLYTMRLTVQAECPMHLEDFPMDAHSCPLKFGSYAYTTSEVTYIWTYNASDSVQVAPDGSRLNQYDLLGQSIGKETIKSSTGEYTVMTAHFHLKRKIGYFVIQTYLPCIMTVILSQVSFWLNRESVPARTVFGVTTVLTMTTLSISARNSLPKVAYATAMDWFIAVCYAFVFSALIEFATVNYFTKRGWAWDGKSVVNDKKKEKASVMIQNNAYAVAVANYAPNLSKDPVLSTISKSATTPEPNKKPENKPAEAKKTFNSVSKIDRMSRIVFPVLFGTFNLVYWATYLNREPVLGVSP

Regarding `COc1c2ccoc2cc2oc(=O)ccc12` [BERGAPTEN], in assay [1], the AC50 – broadly, the concentration at which the activity in the assay is half-maximal – was greater than 30 µM.

`C[C@]12C=CC(=O)N[C@@H]1CC[C@@H]1[C@@H]2CC[C@]2(C)[C@@H](C(=O)Nc3cc(C(F)(F)F)ccc3C(F)(F)F)CC[C@@H]12` [DUTASTERIDE]: the AC50 in assay [2] is greater than 30 µM; in assay [3], greater than 10 µM; in assay [4], greater than 10 µM.

On to `CC1=C(/C=C/C(C)=C/C=C/C(C)=C/C(=O)O)C(C)(C)CCC1` [TRETINOIN], for which the AC50 in assay [1] is greater than 3 µM.

For the compound `COc1ccc(CC2c3cc(OC)c(OC)cc3CC[N+]2(C)CCC(=O)OCCCCCOC(=O)CC[N+]2(C)CCc3cc(OC)c(OC)cc3C2Cc2ccc(OC)c(OC)c2)cc1OC` (stereo unspecified), the AC50 in assay [2], in assay [3] and in assay [4] was greater than 30 µM throughout.

In turn, `FC(F)(F)c1ccc(CNc2ccc(Cc3c[nH]c4ncc(Cl)cc34)cn2)cn1` [PEXIDARTINIB] gave an AC50 in assay [1] greater than 3 µM.

On to `C[C@H]1O[C@@H](n2cc(F)c(=O)[nH]c2=O)[C@H](O)[C@@H]1O` [DOXIFLURIDINE], for which, in assay [1], the AC50 is greater than 30 µM.

For `CC(N)C12CC3CC(CC(C3)C1)C2` (stereo unspecified) [RIMANTADINE], in assay [4], the AC50 was greater than 10 µM.

As for `C[N+](C)(C)C[C@H](O)CC(=O)[O-]` [LEVOCARNITINE], the AC50 in assay [1] was greater than 30 µM.

`CCOC(=O)C1=C[C@@H](OC(CC)CC)[C@H](NC(C)=O)[C@@H](N)C1` [OSELTAMIVIR] showed an AC50 in assay [1] greater than 30 µM.

As to `O=C1CN(/N=C/c2ccc(-c3ccc([N+](=O)[O-])cc3)o2)C(O)=N1` [DANTROLENE], the AC50 in assay [2] was greater than 30 µM; in assay [3], greater than 10 µM; in assay [4], greater than 10 µM.

Turning to `Cc1onc(-c2ccccc2)c1C(=O)N[C@@H]1C(=O)N2[C@@H]1SC(C)(C)[C@@H]2C(=O)O` [OXACILLIN], the AC50 in assay [1] was greater than 30 µM.

With `CC(C(=O)O)c1ccc2c(c1)[nH]c1ccc(Cl)cc12` (stereo unspecified) [CARPROFEN], the AC50 in assay [2] is greater than 30 µM; in assay [3], greater than 10 µM; in assay [4], greater than 30 µM.

In assay [1], `[H]/N=C(\N/C(=N/[H])Nc1ccc(Cl)cc1)NC(C)C` [PROGUANIL] registered an AC50 greater than 30 µM.

In turn, `CC(C)OC(=O)CCC/C=C\C[C@@H]1[C@@H](/C=C/C(F)(F)COc2ccccc2)[C@H](O)C[C@@H]1O` [TAFLUPROST] yielded an AC50 in assay [1] greater than 30 µM.

Take `CN(C)CC[C@@H](c1ccc(Cl)cc1)c1ccccn1` [DEXCHLORPHENIRAMINE]: the AC50 in assay [4] was greater than 30 µM.

With `C#C[C@]1(O)CC[C@H]2[C@@H]3CCC4=CC(=O)CC[C@@H]4[C@H]3C(=C)C[C@@]21CC` [ETONOGESTREL], the AC50 in assay [2] and in assay [3] was greater than 30 µM throughout.

Turning to `CC(CN1CC(=O)NC(=O)C1)N1CC(=O)NC(=O)C1` (stereo unspecified) [RAZOXANE], the AC50 in assay [1] was greater than 30 µM.

The compound `O=C1C(CC[S+]([O-])c2ccccc2)C(=O)N(c2ccccc2)N1c1ccccc1` (stereo unspecified) [SULFINPYRAZONE] returned an AC50 in assay [4] greater than 10 µM.

Turning to `CC(=O)O[C@]1(C(C)=O)CC[C@H]2[C@@H]3C=C(C)C4=CC(=O)CC[C@@H]4[C@H]3CC[C@@]21C` [NOMEGESTROL ACETATE], the AC50 is greater than 30 µM in assay [2], greater than 30 µM in assay [3] and 0.067 µM in assay [4].

Consider `CC(C)(O)CNc1nc(Nc2ccnc(C(F)(F)F)c2)nc(-c2cccc(C(F)(F)F)n2)n1` [ENASIDENIB], for which, in assay [1], the AC50 is greater than 30 µM.

`O=C(O)COc1ccc(C(=O)c2cccs2)c(Cl)c1Cl`: the AC50 in assay [1] was greater than 10 µM.

`C[C@@H]1C[C@H]2[C@@H]3CCC4=CC(=O)C=C[C@]4(C)[C@@]3(Cl)[C@@H](O)C[C@]2(C)[C@@]1(OC(=O)c1ccco1)C(=O)CCl` [MOMETASONE FUROATE]: in assay [1], the AC50 was greater than 30 µM.

As to `CC[C@H]1OC(=O)[C@H](C)C(=O)[C@H](C)[C@@H](O[C@@H]2O[C@H](C)C[C@H](N(C)C)[C@H]2O)[C@](C)(OC)C[C@@H](C)C(=O)[C@H](C)[C@H]2N(CCCCn3cnc(-c4cccnc4)c3)C(=O)O[C@]12C` [TELITHROMYCIN], the AC50 in assay [1] is greater than 30 µM.

Regarding `Cc1ccccc1C(=O)Nc1ccc(C(=O)N2CCCC(N(C)C)c3ccccc32)cc1` (stereo unspecified) [MOZAVAPTAN], the AC50 in assay [1] was greater than 30 µM.

`CN1C(C(=O)Nc2ccccn2)=C(O)c2ccccc2S1(=O)=O` [PIROXICAM]: in assay [4], the AC50 is greater than 10 µM.
